A value given as a limit tells only on which side of the number the result lay.

The assay addresses T1, BhTnaA (Blastocystis ST7-B tryptophanase) (Blastocystis hominis, UniProt D8M5A5).
T1 construct: gene GSBLH_T00003147001; pGEX-6P-1, N-terminal GST tag cut with PreScission protease; E. coli BL21
T1 sequence (D8M5A5 1-544): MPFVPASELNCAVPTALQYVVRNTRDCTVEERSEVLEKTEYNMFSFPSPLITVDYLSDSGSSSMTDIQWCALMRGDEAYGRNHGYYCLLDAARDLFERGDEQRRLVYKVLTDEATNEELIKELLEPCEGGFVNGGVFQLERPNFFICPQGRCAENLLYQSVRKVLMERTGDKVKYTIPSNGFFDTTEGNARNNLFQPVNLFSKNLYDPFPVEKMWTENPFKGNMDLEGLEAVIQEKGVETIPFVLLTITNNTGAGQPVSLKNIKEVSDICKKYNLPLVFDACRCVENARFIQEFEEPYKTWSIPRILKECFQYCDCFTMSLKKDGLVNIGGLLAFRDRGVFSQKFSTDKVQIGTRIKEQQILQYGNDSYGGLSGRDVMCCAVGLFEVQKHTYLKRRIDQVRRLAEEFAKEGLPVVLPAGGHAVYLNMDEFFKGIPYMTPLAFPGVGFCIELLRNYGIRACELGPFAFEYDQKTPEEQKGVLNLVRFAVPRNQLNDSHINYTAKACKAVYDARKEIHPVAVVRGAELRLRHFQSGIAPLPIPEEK
Nature of the assay: indole formation, Ehrlich's reagent, […] nm, Hanes-Woolf plot. It counts as biochemical. To be noted: forward reaction (tryptophan to indole); PLP 0.165 mM; pH 7.5; 37 °C; toluene-layered; exact value only in Fig 4D.

Turning to `N[C@@H](Cc1c[nH]c2ccccc12)C(=O)O` [L-tryptophan], the Km is over 3 mM.

(Values after paper PMC8448343, “Characterisation of novel functionality within the Blastocystis tryptophanase gene” (PLoS Neglected Tropical Diseases, 2021).)
